# Results from ChEMBL document CHEMBL6071160, “Identification of a novel 10-hydroxyevodiamine prodrug as a potent topoisomerase inhibitor with improved aqueous solubility for treatment of hepatocellular carcinoma” (Eur J Med Chem, 2024).
# Assays:
# HepG2 = assay: Antiproliferative activity against human HepG2 cells assessed as inhibition of cell proliferation incubated for 72 hrs by MTT assay; assay type: functional, cell-based; conditions: HepG2, 72 h
# Huh-7 [1] = assay: Antiproliferative activity against human Huh-7 cells assessed as inhibition of cell proliferation incubated for 72 hrs by MTT assay; assay type: functional, cell-based; conditions: Huh-7, 72 h
# SK-HEP1 [2] = assay: Antiproliferative activity against human SK-HEP1 cells assessed as inhibition of cell proliferation incubated for 72 hrs by MTT assay; assay type: functional, cell-based; conditions: SK-HEP1, 72 h
# [3] = Aqueous solubility of the compound […] measured after 72 hrs in shaking by HPLC analysis; assay type: physicochemical
# Huh-7 [4] = assay: Induction of apoptosis in human Huh-7 cells assessed as ROS generation by measuring DCFH2-DA stained cells at 80 nM measured after 24 hrs […] (reference value: 0.45%); assay type: functional
# SK-HEP1 [5] = assay: Induction of apoptosis in human SK-HEP1 cells assessed as ROS generation by measuring DCFH2-DA stained cells at 80 nM measured after 24 hrs […] (reference value: 0.14%); assay type: functional
# Huh-7 [6] = assay: Induction of apoptosis in human Huh-7 cells assessed as loss of mitochondrial membrane potential by measuring JC-1 stained cells at 80 nM measured after 24 hrs by JC-1 staining based flow cytometry (reference value: 2.27%); assay type: functional
# SK-HEP1 [7] = assay: Induction of apoptosis in human SK-HEP1 cells assessed as late apoptotic cells at 80 nM measured after 24 hrs by Annexin-V-FITC/PI analysis (reference value: 0.64%); assay type: functional
# Huh-7 [8] = assay: Induction of apoptosis in human Huh-7 cells assessed as late apoptotic cells at 80 nM measured after 24 hrs by Annexin-V-FITC/PI analysis (reference value: 1.23%); assay type: functional
# Huh-7 [9] = assay: Induction of apoptosis in human Huh-7 cells assessed as viable cells at 80 nM measured after 24 hrs by Annexin-V-FITC/PI analysis (reference value: 97.46%); assay type: functional; conditions: read-out: Activity
# SK-HEP1 [10] = assay: Induction of cell cycle arrest in human SK-HEP1 cells assessed as accumulation of cells at G1 phase 80 nM measured after 24 hrs by flow cytometric assay (reference value: 47.55%); assay type: functional
# Huh-7 [11] = assay: Induction of apoptosis in human Huh-7 cells assessed as early apoptotic cells at 80 nM measured after 24 hrs by Annexin-V-FITC/PI analysis (reference value: 1.04%); assay type: functional
# SK-HEP1 [12] = assay: Induction of apoptosis in human SK-HEP1 cells assessed as necrotic cells at 80 nM measured after 24 hrs by Annexin-V-FITC/PI analysis (reference value: 0.70%); assay type: functional
# Huh-7 [13] = assay: Induction of cell cycle arrest in human Huh-7 cells assessed as accumulation of cells at G1 phase 80 nM measured after 24 hrs by flow cytometric assay (reference value: 63.01%); assay type: functional
# SK-HEP1 [14] = assay: Induction of apoptosis in human SK-HEP1 cells assessed as loss of mitochondrial membrane potential by measuring JC-1 stained cells at 80 nM measured after 24 hrs by JC-1 staining based flow cytometry (reference value: 0.49%); assay type: functional
# SK-HEP1 [15] = assay: Induction of cell cycle arrest in human SK-HEP1 cells assessed as accumulation of cells at S phase 80 nM measured after 24 hrs by flow cytometric assay (reference value: 30.04%); assay type: functional
# Huh-7 [16] = assay: Induction of cell cycle arrest in human Huh-7 cells assessed as accumulation of cells at S phase 80 nM measured after 24 hrs by flow cytometric assay (reference value: 23.33%); assay type: functional
# Huh-7 [17] = assay: Induction of cell cycle arrest in human Huh-7 cells assessed as accumulation of cells at G2 phase 80 nM measured after 24 hrs by flow cytometric assay (reference value: 13.66%); assay type: functional
# SK-HEP1 [18] = assay: Induction of cell cycle arrest in human SK-HEP1 cells assessed as accumulation of cells at G2 phase 80 nM measured after 24 hrs by flow cytometric assay (reference value: 22.41%); assay type: functional
# SK-HEP1 [19] = assay: Induction of apoptosis in human SK-HEP1 cells assessed as early apoptotic cells at 80 nM measured after 24 hrs by Annexin-V-FITC/PI analysis (reference value: 1.45%); assay type: functional
# Huh-7 [20] = assay: Induction of apoptosis in human Huh-7 cells assessed as necrotic cells at 80 nM measured after 24 hrs by Annexin-V-FITC/PI analysis (reference value: 0.27%); assay type: functional
# SK-HEP1 [21] = assay: Induction of apoptosis in human SK-HEP1 cells assessed as viable cells at 80 nM measured after 24 hrs by Annexin-V-FITC/PI analysis (reference value: 97.20%); assay type: functional; conditions: read-out: Activity
# [22] = Antiproliferative activity against human Doxorubicin-resistant SMMC-7721 cell assessed as inhibition of cell proliferation incubated for 72 hrs by MTT assay; assay type: functional, cell-based; conditions: SMMC-7721, 72 h
# [23] = Drug resistance index, ratio of IC50 for antiproliferative activity against human SMMC-7721 cells to antiproliferative activity against human Doxorubicin-resistant SMMC-7721 cells; assay type: functional
# SMMC-7721 = assay: Antiproliferative activity against human SMMC-7721 cells assessed as inhibition of cell proliferation incubated for 72 hrs by MTT assay; assay type: functional, cell-based; conditions: SMMC-7721, 72 h
SMILES,IC50 (HepG2) [nM],IC50 (Huh-7 [1]) [nM],IC50 (SK-HEP1 [2]) [nM],solubility thermodynamic at 72 h [3] [µg/mL],other results
O=C(Oc1ccc2[nH]c3c(c2c1)CCN1C(=O)c2cc(F)cc(F)c2N(c2cccc(F)c2)C31)N1CCC(N2CCCCC2)CC1 (stereo not drawn),> 1620,> 1620,> 1620,34.5,
O=C1c2cc(F)cc(F)c2N(c2cccc(F)c2)C2c3[nH]c4ccc(O)cc4c3CCN12 (stereo not drawn),,50,,1,Activity (Huh-7 [4]): 31.15%; Activity (SK-HEP1 [5]): 61.44%; Activity (Huh-7 [6]): 10.62%; Activity (SK-HEP1 [7]): 10.49%; Activity (Huh-7 [8]): 10.46%; viability at 0.08 µM (Huh-7 [9]): 81.1%; Activity (SK-HEP1 [10]): 8.18%; Activity (Huh-7 [11]): 6.84%; Activity (SK-HEP1 [12]): 1.19%; Activity (Huh-7 [13]): 5.79%; Activity (SK-HEP1 [14]): 10.75%; Activity (SK-HEP1 [15]): 25.51%; Activity (Huh-7 [16]): 7.51%; Activity (Huh-7 [17]): 86.71%; Activity (SK-HEP1 [18]): 66.31%; Activity (SK-HEP1 [19]): 22.1%; Activity (Huh-7 [20]): 1.63%; viability at 0.08 µM (SK-HEP1 [21]): 66.2%
CC(C)(O)COc1ccc2[nH]c3c(c2c1)CCN1C(=O)c2cc(F)cc(F)c2N(c2cccc(F)c2)C31 (stereo not drawn),1240,530,920,2.5,
O=C1c2cc(F)cc(F)c2N(c2cccc(F)c2)C2c3[nH]c4ccc(OCCN5CCOCC5)cc4c3CCN12 (stereo not drawn),> 1620,> 1620,> 1620,9.5,
COCCCOc1ccc2[nH]c3c(c2c1)CCN1C(=O)c2cc(F)cc(F)c2N(c2cccc(F)c2)C31 (stereo not drawn),> 1620,> 1620,> 1620,71.4,
O=C(O)COc1ccc2[nH]c3c(c2c1)CCN1C(=O)c2cc(F)cc(F)c2N(c2cccc(F)c2)C31 (stereo not drawn),> 1620,> 1620,> 1620,72.5,
COCCOc1ccc2[nH]c3c(c2c1)CCN1C(=O)c2cc(F)cc(F)c2N(c2cccc(F)c2)C31 (stereo not drawn),1280,1530,1580,1.3,
COc1cccc2c1C(=O)c1c(O)c3c(c(O)c1C2=O)C[C@@](O)(C(=O)CO)C[C@@H]3O[C@H]1C[C@H](N)[C@H](O)[C@H](C)O1 [DOXORUBICIN],,,,,IC50 [22]: 1350 nM; Ratio [23]: 9; IC50 (SMMC-7721): 150 nM
O=C1c2cc(F)cc(F)c2N(c2cccc(F)c2)C2c3[nH]c4ccc(OCCN5CCCCC5)cc4c3CCN12 (stereo not drawn),> 1620,> 1620,> 1620,34.3,
CCN(CC)C(=O)Oc1ccc2[nH]c3c(c2c1)CCN1C(=O)c2cc(F)cc(F)c2N(c2cccc(F)c2)C31 (stereo not drawn),> 1620,> 1620,> 1620,5.5,
O=C(CCN1CCCC1)Oc1ccc2[nH]c3c(c2c1)CCN1C(=O)c2cc(F)cc(F)c2N(c2cccc(F)c2)C31 (stereo not drawn),80,40,30,10.1,
CN(C)CC(=O)Oc1ccc2[nH]c3c(c2c1)CCN1C(=O)c2cc(F)cc(F)c2N(c2cccc(F)c2)C31 (stereo not drawn),100,40,30,8.7,
CNC(=O)c1cc(Oc2ccc(NC(=O)Nc3ccc(Cl)c(C(F)(F)F)c3)cc2)ccn1 [SORAFENIB],,,,,IC50 [22]: 5120 nM; IC50 (SMMC-7721): 3460 nM
O=C1c2cc(F)cc(F)c2N(c2cccc(F)c2)C2c3[nH]c4ccc(OCCN5CCNCC5)cc4c3CCN12 (stereo not drawn),> 1620,> 1620,> 1620,50.5,
O=C1c2cc(F)cc(F)c2N(c2cccc(F)c2)C2c3[nH]c4ccc(OCCCN5CCCCC5)cc4c3CCN12 (stereo not drawn),> 1620,> 1620,> 1620,100,
COCC(=O)Oc1ccc2[nH]c3c(c2c1)CCN1C(=O)c2cc(F)cc(F)c2N(c2cccc(F)c2)C31 (stereo not drawn),90,40,40,3,
CC(O)COc1ccc2[nH]c3c(c2c1)CCN1C(=O)c2cc(F)cc(F)c2N(c2cccc(F)c2)C31 (stereo not drawn),510,190,730,12.2,
O=C(CO)Oc1ccc2[nH]c3c(c2c1)CCN1C(=O)c2cc(F)cc(F)c2N(c2cccc(F)c2)C31 (stereo not drawn),180,70,40,0.7,
O=C1c2cc(F)cc(F)c2N(c2cccc(F)c2)C2c3[nH]c4ccc(OCCCN5CCCC5)cc4c3CCN12 (stereo not drawn),> 1620,> 1620,> 1620,61.1,
O=C(O)CCC(=O)Oc1ccc2[nH]c3c(c2c1)CCN1C(=O)c2cc(F)cc(F)c2N(c2cccc(F)c2)C31 (stereo not drawn),70,20,90,6.1,
CN(C)CCC(=O)Oc1ccc2[nH]c3c(c2c1)CCN1C(=O)c2cc(F)cc(F)c2N(c2cccc(F)c2)C31 (stereo not drawn),40,40,40,11.8,
CN(C)CCOc1ccc2[nH]c3c(c2c1)CCN1C(=O)c2cc(F)cc(F)c2N(c2cccc(F)c2)C31 (stereo not drawn),800,430,1380,53,
O=C(Oc1ccc2[nH]c3c(c2c1)CCN1C(=O)c2cc(F)cc(F)c2N(c2cccc(F)c2)C31)N1CCNCC1 (stereo not drawn),> 1620,> 1620,> 1620,1.5,
CC[C@@]1(O)C(=O)OCc2c1cc1n(c2=O)Cc2cc3c(CN(C)C)c(O)ccc3nc2-1 [TOPOTECAN],1040,3750,1510,,
O=C1c2cc(F)cc(F)c2N(c2cccc(F)c2)C2c3[nH]c4ccc(OCCO)cc4c3CCN12 (stereo not drawn),280,120,200,9.5,
COP(=O)(OC)Oc1ccc2[nH]c3c(c2c1)CCN1C(=O)c2cc(F)cc(F)c2N(c2cccc(F)c2)C31 (stereo not drawn),> 1620,> 1620,> 1620,1.9,
CN1CCN(CCOc2ccc3[nH]c4c(c3c2)CCN2C(=O)c3cc(F)cc(F)c3N(c3cccc(F)c3)C42)CC1 (stereo not drawn),> 1620,> 1620,> 1620,103,
CN(C)C(=O)Oc1ccc2[nH]c3c(c2c1)CCN1C(=O)c2cc(F)cc(F)c2N(c2cccc(F)c2)C31 (stereo not drawn),> 1620,> 1620,> 1620,3.1,
O=C1c2cc(F)cc(F)c2N(c2cccc(F)c2)C2c3[nH]c4ccc(OCCCN5CCOCC5)cc4c3CCN12 (stereo not drawn),> 1620,> 1620,> 1620,11.6,
